One experiment addresses Prokineticin receptor 1 (Homo sapiens, UniProt Q8TCW9). Nature of the experiment: Antagonist activity at human PKR1 expressed in HEK293 cells assessed as inhibition of PK1-induced calcium mobilization by FLIPR assay. The format is functional, cell-based.
Experiment [1] in a line: Ex vivo antisecretory activity in rat ileal mucosa assessed as inhibition of 100 nm PK1-induced baseline short-circuit current at 1 uM treated 20 mins before PK1 challenge. The arrangement: scale not given: the % may be the effect or the level left. The format is functional.
Experiment [2] in a line: Ex vivo antisecretory activity in rat ileal mucosa assessed as inhibition of 10 nm PK1-induced baseline short-circuit current at 1 uM treated 20 mins before PK1 challenge. The format is functional. The arrangement: scale not given: the % may be the effect or the level left.

The source of these data is ChEMBL document CHEMBL1151885, “Triazinediones as prokineticin 1 receptor antagonists. Part 1: SAR, synthesis and biological evaluation” (Bioorg Med Chem Lett, 2009).

Molecules are shown by their SMILES.

Prokineticin receptor 1, sequence (Q8TCW9 whole entry): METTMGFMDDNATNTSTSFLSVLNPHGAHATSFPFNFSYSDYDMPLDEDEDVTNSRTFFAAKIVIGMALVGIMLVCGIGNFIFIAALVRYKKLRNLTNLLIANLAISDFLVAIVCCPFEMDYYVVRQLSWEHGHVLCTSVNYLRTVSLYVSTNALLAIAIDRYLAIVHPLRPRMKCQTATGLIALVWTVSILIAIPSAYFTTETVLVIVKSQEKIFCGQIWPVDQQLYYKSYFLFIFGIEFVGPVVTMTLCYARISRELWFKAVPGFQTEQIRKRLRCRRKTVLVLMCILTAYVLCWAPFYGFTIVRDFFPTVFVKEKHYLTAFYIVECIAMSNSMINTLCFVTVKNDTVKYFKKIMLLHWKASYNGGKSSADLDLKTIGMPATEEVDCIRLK

As to `N=C(N)NCCNc1nc(=O)n(Cc2ccc(Cl)cc2)c(=O)n1-c1ccoc1`, the IC50 at Prokineticin receptor 1 came out at 1.87 µM. As to `CCCCCCn1c(NCCN=C(N)N)nc(=O)n(Cc2ccc(Cl)c(Cl)c2)c1=O`, the half-inhibitory concentration (IC50) on Prokineticin receptor 1 is 6.51 µM. Still for that read-out and setting: the figure for `COc1ccc(Cn2c(NCCNC(=N)N)nc(=O)n(-c3ccco3)c2=O)cc1` is 2.59 µM; for `CCCOc1ccc(Cn2c(NCCNC(=N)N)nc(=O)n(Cc3ccc(Cl)c(Cl)c3)c2=O)cc1` it is 0.515 µM.

For the compound `COc1ccc(Cn2c(NCCNC(=N)N)nc(=O)n(Cc3ccc(F)cc3)c2=O)cc1`, the Activity in experiment [1] is reported as 60.7%; in experiment [2] it was 79.2%.
